These results are taken from patent publication US7579469B2, “Glucocorticoid mimetics, methods of making them, pharmaceutical compositions, and uses thereof” (Boehringer Ingelheim Pharmaceuticals, Inc., priority 2003, dated 2009).

Each structure is given as a SMILES string.

For the test, the target named is T1, human glucocorticoid receptor (GR) complex (Homo sapiens, UniProt P04150).
T1 construct: made in house; host or cells: insect expression system (baculovirus lysate)
T1 sequence (P04150 1-777): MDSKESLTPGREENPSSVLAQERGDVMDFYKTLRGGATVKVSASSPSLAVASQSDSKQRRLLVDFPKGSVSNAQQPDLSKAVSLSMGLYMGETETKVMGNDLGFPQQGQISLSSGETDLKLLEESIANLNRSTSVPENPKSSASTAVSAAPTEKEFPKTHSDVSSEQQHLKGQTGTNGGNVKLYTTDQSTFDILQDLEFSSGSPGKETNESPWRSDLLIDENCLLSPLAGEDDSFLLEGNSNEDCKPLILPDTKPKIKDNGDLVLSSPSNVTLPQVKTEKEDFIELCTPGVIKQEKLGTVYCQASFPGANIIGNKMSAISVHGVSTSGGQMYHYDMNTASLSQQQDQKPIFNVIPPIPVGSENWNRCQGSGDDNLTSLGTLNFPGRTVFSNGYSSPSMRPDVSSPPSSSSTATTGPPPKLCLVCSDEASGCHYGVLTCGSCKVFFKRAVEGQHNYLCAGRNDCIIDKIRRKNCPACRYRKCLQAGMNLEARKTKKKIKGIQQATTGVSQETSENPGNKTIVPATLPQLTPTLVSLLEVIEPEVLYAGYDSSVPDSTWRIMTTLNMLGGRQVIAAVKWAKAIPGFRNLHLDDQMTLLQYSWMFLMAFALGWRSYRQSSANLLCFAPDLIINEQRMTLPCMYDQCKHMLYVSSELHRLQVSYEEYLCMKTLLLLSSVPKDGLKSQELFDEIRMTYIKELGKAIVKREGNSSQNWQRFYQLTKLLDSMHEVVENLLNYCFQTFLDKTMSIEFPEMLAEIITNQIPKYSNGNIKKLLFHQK
The test is described as follows: Glucocorticoid receptor competitive binding assay (fluorescence polarization). The conditions noted are these: competition with TAMRA-labeled dexamethasone. On the procedure: Compounds of the invention were evaluated for binding to the steroid receptor by a fluorescence polarization competitive binding assay.
A. Glucocorticoid Receptor Competitive Binding Assay
Step 1. Characterization of the Fluorescent Probe
The wavelengths for maximum excitation and emission of the fluorescent probe should first be measured. An example of such a probe is rhodamine (TAMRA)-labeled dexamethasone.
The affinity of the probe for the steroid receptor was then determined in a titration experiment. The fluorescence polarization value of the probe in assay buffer was measured on an SLM-8100 fluorometer using the excitation and emission maximum values described above. Aliquots of expression vector lysate were added and fluorescence polarization was measured after each addition until no further change in polarization value was observed. Non-linear least squares regression analysis was used to calculate the dissociation constant of the probe from the polarization values obtained for lysate binding to the probe.
Step 2. Screening for Inhibitors of Probe Binding
This assay uses fluorescence polarization (FP) to quantitate the ability of test compounds to compete with tetramethyl rhodamine (TAMRA)-labeled dexamethasone for binding to a human glucocorticoid receptor (GR) complex prepared from an insect expression system. The assay buffer was: 10 mM TES, 50 mM KCl, 20 mM Na2MoO4.2H20, 1.5 mM EDTA, 0.04% w/v CHAPS, 10% v/v glycerol, 1 mM dithiothreitol, pH 7.4. Test compounds were dissolved to 1 mM in neat DMSO and then further diluted to 10× assay concentration in assay buffer supplemented with 10% v/v DMSO. Test compounds were serially diluted at 10× assay concentrations in 10% DMSO-containing buffer in 96-well polypropylene plates. Binding reaction mixtures were prepared in 96-well black Dynex microtiter plates by sequential addition of the following assay components to each well: 15 μL of 10× test compound solution, 85 μL of GR-containing baculovirus lysate diluted 1:170 in assay buffer, and 50 μL of 15 nM TAMRA-labeled dexamethasone. Positive controls were reaction mixtures containing no test compound; negative controls (blanks) were reaction mixtures containing 0.7 μM to 2 μM dexamethasone. […] IC50 values were determined by iterative non-linear curve fitting of the FP signal data to a 4-parameter logistic equation.
(In general: Polarisation of emitted light reports the rotation of a fluorescent probe.)
For `CC(C)(CC(O)(Cn1ccc(=O)c2ccccc21)C(F)(F)F)c1cc(F)ccc1OC(F)F` (stereo not shown), the “activity in the GR binding assay” value is recorded as “potent activity”.

Take `COc1ccc(F)cc1C(C)(C)CC(O)(Cn1ccc(=O)c2ccccc21)C1CC1` (stereo not shown): the “activity in the GR binding assay” value is on record as “potent activity”.

For `COc1ccc(F)cc1C(C)(C)CC(O)(Cn1ccc(=O)c2ccccc21)C(F)F` (stereo not shown), the “activity in the GR binding assay” value was “potent activity”.

Consider `CC(C)(CC(O)(Cn1ccc(=O)c2ccccc21)C(F)(F)F)c1cc(-c2cncnc2)ccc1O` (stereo not shown), for which the “activity in the GR binding assay” value is on record as “potent activity”.

In the case of `COc1c(C)cc(C)cc1C(C)(C)CC(O)(Cn1ccc(=O)c2ccccc21)C(F)(F)F` (stereo not shown), the “activity in the GR binding assay” value is on record as “potent activity”.

Consider `COc1ccc(-c2cncnc2)cc1C(C)(C)CC(O)(Cn1ccc(=O)c2ccccc21)C(F)(F)F` (stereo not shown), for which the “activity in the GR binding assay” value is given as “potent activity”.

Regarding `COc1ccc(-c2cccnc2)cc1C(C)(C)CC(O)(Cn1ccc(=O)c2ccccc21)C(F)(F)F` (stereo not shown), the “activity in the GR binding assay” value is reported as “potent activity”.

For `COc1ccc(-c2ccsc2)cc1C(C)(C)CC(O)(Cn1ccc(=O)c2ccccc21)C(F)(F)F` (stereo not shown), the “activity in the GR binding assay” value is given as “potent activity”.

As to `CC(C)(CC(O)(Cn1ccc(=O)c2ccccc21)C(F)(F)F)c1cccc(CO)c1` (stereo not shown), the “activity in the GR binding assay” value is listed as “potent activity”.

As for `CC(C)Oc1cccc(C(C)(C)CC(O)(Cn2ccc(=O)c3ccccc32)C(F)(F)F)c1` (stereo not shown), the “activity in the GR binding assay” value is “potent activity”.

In the case of `CC(C)(CC(O)(Cn1ccc(=O)c2ccccc21)C(F)(F)F)c1cccc(CN2CCOCC2)c1` (stereo not shown), the “activity in the GR binding assay” value is on record as “potent activity”.

`CC(C)(CC(O)(Cn1ccc(=O)c2ccccc21)C(F)(F)F)c1cccc(-c2cccnc2)c1` (stereo not shown): the “activity in the GR binding assay” value was “potent activity”.

As to `CC(C)(CC(O)(Cn1ccc(=O)c2ccccc21)C(F)(F)F)c1cccc2c1OCO2` (stereo not shown), the “activity in the GR binding assay” value is recorded as “potent activity”.

Regarding `CC(C)(CC(O)(Cn1ccc(=O)c2ccccc21)C(F)(F)F)c1cc(F)ccc1OCc1ccccc1` (stereo not shown), the “activity in the GR binding assay” value is “potent activity”.

For the compound `CC(C)(CC(O)(Cn1ccc(=O)c2ncccc21)C(F)(F)F)c1cccc2c1OCC2` (stereo not shown), the “activity in the GR binding assay” value was “potent activity”.

With `Cc1ccc(C(C)(C)CC(O)(Cn2ccc(=O)c3ccccc32)C(F)(F)F)c(C)c1` (stereo not shown), the “activity in the GR binding assay” value was “potent activity”.

Take `Cc1ccc(C)c(C(C)(C)CC(O)(Cn2ccc(=O)c3ccccc32)C(F)(F)F)c1` (stereo not shown): the “activity in the GR binding assay” value was “potent activity”.

As to `CC(C)(CC(O)(Cn1ccc(=O)c2ccccc21)C(F)(F)F)c1cccc(C(=O)C2CC2)c1` (stereo not shown), the “activity in the GR binding assay” value was “potent activity”.

Turning to `CCOc1cccc(C(C)(C)CC(O)(Cn2ccc(=O)c3ccccc32)C(F)(F)F)c1` (stereo not shown), the “activity in the GR binding assay” value is given as “potent activity”.

With `CC(C)(CC(O)(Cn1ccc(=O)c2ccccc21)C(F)(F)F)c1ccc(F)c(C2OCCCO2)c1` (stereo not shown), the “activity in the GR binding assay” value is “potent activity”.

As to `Cc1ccc(C(C)(C)CC(O)(Cn2ccc(=O)c3ccccc32)C(F)(F)F)cc1C` (stereo not shown), the “activity in the GR binding assay” value is “potent activity”.

Consider `CC(C)(CC(O)(Cn1ccc(=O)c2ccccc21)C(F)(F)F)c1cc(F)cc(F)c1` (stereo not shown), for which the “activity in the GR binding assay” value is on record as “potent activity”.

For `Cc1cc(C)cc(C(C)(C)CC(O)(Cn2ccc(=O)c3ccccc32)C(F)(F)F)c1` (stereo not shown), the “activity in the GR binding assay” value is reported as “potent activity”.

On to `COc1cc(F)ccc1C(C)(C)CC(O)(Cn1ccc(=O)c2ccccc21)C(F)(F)F` (stereo not shown), for which the “activity in the GR binding assay” value is listed as “potent activity”.

Regarding `Cc1cc(F)ccc1C(C)(C)CC(O)(Cn1ccc(=O)c2ccccc21)C(F)(F)F` (stereo not shown), the “activity in the GR binding assay” value was “potent activity”.

With `CC(=O)c1ccc(O)c(C(C)(C)CC(O)(Cn2ccc(=O)c3ccccc32)C(F)(F)F)c1` (stereo not shown), the “activity in the GR binding assay” value is “potent activity”.

Regarding `CC(C)(CC(O)(Cn1ccc(=O)c2ccccc21)C(F)(F)F)c1cc(F)cc2c1OCC2` (stereo not shown), the “activity in the GR binding assay” value is “potent activity”.

Turning to `CC(C)(CC(O)(Cn1cnc(=O)c2ccccc21)C(F)(F)F)c1cc(F)ccc1O` (stereo not shown), the “activity in the GR binding assay” value is reported as “potent activity”.

As for `CC(C)(CC(O)(Cn1ccc(=O)c2ccc(O)cc21)C(F)(F)F)c1cc(F)ccc1O` (stereo not shown), the “activity in the GR binding assay” value is listed as “potent activity”.

As for `Cc1cn(CC(O)(CC(C)(C)c2cc(F)ccc2O)C(F)(F)F)c2ccccc2c1=O` (stereo not shown), the “activity in the GR binding assay” value is “potent activity”.

Consider `CC(C)Oc1ccc(F)cc1C(C)(C)CC(O)(Cn1ccc(=O)c2ccccc21)C(F)(F)F` (stereo not shown), for which the “activity in the GR binding assay” value is “potent activity”.

In the case of `COc1ccc(F)cc1C(C)(C)CC(O)(Cn1ccc(=O)c2cc(C)ccc21)C(F)(F)F` (stereo not shown), the “activity in the GR binding assay” value is on record as “potent activity”.

For `COc1ccc(F)cc1C(C)(C)CC(O)(Cn1cc(C)c(=O)c2ccccc21)C(F)(F)F` (stereo not shown), the “activity in the GR binding assay” value is “potent activity”.

`Cc1ccc(F)cc1C(C)(C)CC(O)(Cn1ccc(=O)c2ccccc21)C(F)(F)F` (stereo not shown): the “activity in the GR binding assay” value is recorded as “potent activity”.

Regarding `COC(=O)Oc1ccc(F)cc1C(C)(C)CC(O)(Cn1ccc(=O)c2ccccc21)C(F)(F)F` (stereo not shown), the “activity in the GR binding assay” value is listed as “potent activity”.

With `COc1ccc(F)cc1C(C)(C)CC(O)(CN1CC[S+]([O-])c2ccccc21)C(F)(F)F` (stereo not shown) [1,1,1-Trifluoro-4-(5-fluoro-2-methoxyphenyl)-4-methyl-2-(1-oxo-2,3-dihydro-1H-1λ^4-benzo[1,4]thiazin-4-ylmethyl)pentan-2-ol], the “activity in the GR binding assay” value is “potent activity”.

For the compound `COc1ccc(F)cc1C(C)(C)CC(O)(CN1CCN(C)c2ccccc21)C(F)(F)F` (stereo not shown) [1,1,1-Trifluoro-4-(5-fluoro-2-methoxyphenyl)-4-methyl-2-(4-methyl-3,4-dihydro-2H-quinoxalin-1-ylmethyl)pentan-2-ol], the “activity in the GR binding assay” value was “potent activity”.

As to `CCC(C)(CC(O)(Cn1ccc(=O)c2ccccc21)C(F)(F)F)c1ccccc1` (stereo not shown) [1-(2-Hydroxy-4-methyl-4-phenyl-2-trifluoromethylhexyl)-1H-quinolin-4-one], the “activity in the GR binding assay” value is on record as “potent activity”.

In the case of `CC(=NO)c1cccc(C(C)(C)CC(O)(Cn2ccc(=O)c3ccccc32)C(F)(F)F)c1` (stereo not shown) [1-(2-Hydroxy-4-{3-[1-(hydroxyimino)ethyl]phenyl}4-methyl-2-trifluoromethylpentyl)-1H-quinolin-4-one], the “activity in the GR binding assay” value is “potent activity”.

Regarding `CON=C(C)c1cccc(C(C)(C)CC(O)(Cn2ccc(=O)c3ccccc32)C(F)(F)F)c1` (stereo not shown) [1-(2-Hydroxy-4-{3-[1-(methoxyimino)ethyl]phenyl}4-methyl-2-trifluoromethylpentyl)-1H-quinolin-4-one], the “activity in the GR binding assay” value is “potent activity”.

For the compound `CC(C)(CC(O)(Cn1ccc(=O)c2ccccc21)C(F)(F)F)c1cccc(-c2ccccc2)c1` (stereo not shown) [1-(4-Biphenyl-3-yl-2-hydroxy-4-methyl-2-trifluoromethylpentyl)-H-quinolin-4-one], the “activity in the GR binding assay” value is recorded as “potent activity”.

As for `C/C(=N/OCc1ccccc1)c1cccc(C(C)(C)CC(O)(Cn2ccc(=O)c3ccccc32)C(F)(F)F)c1` (stereo not shown) [1-(4-{3-[1-(Benzyloxyimino)ethyl]phenyl}-2-hydroxy-4-methyl-2-trifluoromethylpentyl)-1H-quinolin-4-one], the “activity in the GR binding assay” value is listed as “potent activity”.

For `Cc1cc(C)c(O)c(C(C)(C)CC(O)(Cn2ccc(=O)c3ccccc32)C(F)(F)F)c1` (stereo not shown) [1-[2-Hydroxy-4-(2-hydroxy-3,5-dimethylphenyl)-4-methyl-2-trifluoromethylpentyl]-1H-quinolin-4-one], the “activity in the GR binding assay” value is recorded as “potent activity”.
